Consider 31 compounds from ChEMBL document CHEMBL2021775, “Discovery of flavonoid derivatives as anti-HCV agents via pharmacophore search combining molecular docking strategy” (Eur J Med Chem, 2012).

A short description of data set [1]: Cytotoxicity against human Huh7.5.1 cells by MTT assay. It counts as cell-based, Huh-7. For orientation: Tetrazolium dyes change colour on reduction, which living cells bring about.
For data set [2], the system named is Hepatitis C virus. Briefly: Antiviral activity against HCV JFH-1 J399EM infected in Human Huh7.5.1 cells assessed as suppression of viral replication at 50 uM after 72 hrs by EGFP assay. It is filed as functional. The note with it: for inhibition: Hepacivirus hominis, Huh-7; for inhibition at 50 µM: Huh-7, 72 h.
Data set [3] relates to Hepatitis C virus. The data set is described as follows: Antiviral activity against HCV JFH-1 J399EM infected in Human Huh7.5.1 cells assessed as suppression of viral replication after 72 hrs by EGFP assay. The note with it: Huh-7, 72 h. It is filed as functional, organism-based, Hepacivirus hominis.
Data set [4] has as its system Hepatitis C virus. The data set is described as follows: Antiviral activity against HCV genotype 2a […] in Human Huh7.5.1 replicon cells assessed as suppression of viral replication after 72 hrs by luciferase reporter gene assay. It is filed as functional, organism-based, Hepacivirus hominis. As to conditions: Huh-7, 72 h.
The subject of data set [5] is Hepatitis C virus. Briefly: Inhibition of HCV 1b NS5B polymerase at 100 uM. On the set-up: species or system Hepatitis C virus subtype 1b.
Data set [6] has as its system Hepatitis C virus. Briefly: Inhibition of HCV 1b NS5B polymerase. On the set-up: species or system Hepatitis C virus subtype 1b.

Active and inactive are the calls of the source. No cut-off for these calls is given here.

Turning to `O=c1c(O)c(-c2cccc(O)c2O)oc2ccc(O)cc12`, the CC50 in data set [1] was greater than 50 µM. In data set [2], the inhibition result is “inactive”.
`O=c1c(O)c(-c2cc(O)c(O)cc2O)oc2ccc(O)cc12`: the half-maximal cytotoxic concentration (CC50) in data set [1] was greater than 50 µM. The inhibition at 50 µM in data set [2] is 31.1%.
Turning to `O=c1c(O)c(-c2ccc(O)cc2)oc2cccc(O)c12`, the 50% cytotoxic concentration (CC50) in data set [1] was greater than 50 µM. Further, the EC50 in data set [3] stood at 12.7 µM.
For `O=c1cc(-c2ccc(O)c(O)c2)oc2c(O)c(O)ccc12`, in that order: greater than 50 µM and 23.3 µM.
With `O=c1c(O)c(-c2ccccc2)oc2cccc(O)c12`, the CC50 in data set [1] was greater than 50 µM. Besides, the inhibition at 50 µM in data set [2] turned out to be 83.7%.
For the compound `O=c1cc(-c2ccccc2O)oc2c(O)c(O)ccc12`, the CC50 in data set [1] is greater than 50 µM. Also, the inhibition at 50 µM in data set [2] was 51.9%.
`O=c1cc(-c2cc(O)c(O)c(O)c2)oc2cc(O)ccc12` gave a CC50 in data set [1] greater than 50 µM. Besides, the EC50 in data set [3] came out at 38.5 µM.
`O=c1c(O[C@H]2O[C@@H](CO)[C@@H](O)[C@@H](O)[C@@H]2O)c(-c2ccc(O)c(O)c2)oc2cc(O)cc(O)c12`: the 50% cytotoxic concentration (CC50) in data set [1] was greater than 50 µM. Also, the inhibition result in data set [2] is “inactive”.
On to `O=C1c2cccc(O)c2C(=O)c2c(O)cc(CO)cc21` [ALOE-EMODIN], for which the CC50 in data set [1] is greater than 50 µM. Also, the half-maximal effective concentration (EC50) in data set [3] came out at 20.8 µM.
With `O=c1cc(-c2ccc(O)c(-c3c(O)cc(O)c4c(=O)cc(-c5ccc(O)cc5)oc34)c2)oc2cc(O)cc(O)c12` [AMENTOFLAVONE], the cytotoxic concentration (CC50) in data set [1] is greater than 50 µM. Besides, in data set [2], the inhibition entry was “inactive”.
For `O=c1cc(-c2ccc(O)cc2)oc2cc(O)cc(O)c12` [APIGENIN], in data set [1], the CC50 was greater than 50 µM. The EC50 in data set [4] was determined as 12 µM; in data set [3], 7.9 µM.
With `O=c1cc(-c2ccccc2)oc2cc(O)c(O)c(O)c12` [BAICALEIN], the CC50 in data set [1] is greater than 50 µM. Besides, the EC50 in data set [3] was found to be 33.9 µM.
As for `O=c1cc(-c2ccccc2)oc2cc(O)cc(O)c12` [CHRYSIN], the CC50 in data set [1] is greater than 50 µM. Also, the inhibition at 100 µM in data set [5] came out at 30%. Further, the inhibition at 50 µM in data set [2] was found to be 51%.
`COc1c(O)cc2oc(-c3ccc(O)c(O)c3)cc(=O)c2c1O` [EUPAFOLIN] returned a 50% cytotoxic concentration (CC50) in data set [1] greater than 50 µM. The EC50 in data set [3] stood at 33.1 µM.
Consider `O=c1c(O)c(-c2ccc(O)c(O)c2)oc2cc(O)ccc12` [FISETIN], for which the CC50 in data set [1] is greater than 50 µM. The inhibition at 50 µM in data set [2] came out at 26.4%.
In data set [1], `O=c1c(O)c(-c2ccccc2)oc2cc(O)cc(O)c12` [GALANGIN] registered a CC50 greater than 50 µM. For the same compound, the inhibition at 50 µM in data set [2] was determined as 46.9%.
In data set [1], `O=c1cc(-c2ccc(O)c(O)c2)oc2cc(O[C@@H]3O[C@H](CO)[C@@H](O)[C@H](O)[C@H]3O)cc(O)c12` [GALUTEOLIN] returned a CC50 greater than 50 µM. For the same compound, in data set [2], the inhibition entry was “inactive”.
`O=c1c(-c2ccc(O)cc2)coc2cc(O)cc(O)c12` [GENISTEIN] had a half-maximal cytotoxic concentration (CC50) in data set [1] greater than 50 µM. The half-maximal effective concentration (EC50) in data set [3] turned out to be 14.4 µM.
The compound `O=c1c(O)c(-c2ccc(O)c(O)c2)oc2c(O)c(O)cc(O)c12` [GOSSYPETIN] showed a CC50 in data set [1] greater than 50 µM. The concentration giving a half-maximal response (EC50) in data set [3] was 47 µM.
`COc1c(O)cc2oc(-c3ccc(O)cc3)cc(=O)c2c1O` [HISPIDULIN] displayed a CC50 in data set [1] greater than 50 µM. Besides, the EC50 in data set [3] is 36.3 µM.
The matching figures for `O=C(/C=C/c1ccc(O)cc1)c1ccc(O)cc1O` [ISOLIQUIRITIGENIN]: greater than 50 µM and 36.1 µM.
Take `O=c1cc(-c2ccc(O)c(O)c2)oc2cc(O)c([C@@H]3O[C@H](CO)[C@@H](O)[C@H](O)[C@H]3O)c(O)c12` [ISOORIENTIN]: the 50% cytotoxic concentration (CC50) in data set [1] is greater than 50 µM. In data set [2], the inhibition entry is “inactive”.
Compound `COc1cc(-c2oc3cc(O)cc(O)c3c(=O)c2O)ccc1O` [ISORHAMNETIN] returned a 50% cytotoxic concentration (CC50) in data set [1] greater than 50 µM. The inhibition at 50 µM in data set [2] came to 47.3%.
The matching figures for `COc1ccc(-c2oc3cc(O)cc(O)c3c(=O)c2O)cc1` [KAEMPFERIDE]: greater than 50 µM and 27.6%.
`O=c1c(O)c(-c2ccc(O)cc2)oc2cc(O)cc(O)c12` [KAEMPFEROL]: the CC50 in data set [1] was greater than 50 µM. Also, the inhibition at 50 µM in data set [2] was 51.9%.
With `O=c1cc(-c2ccc(O)c(O)c2)oc2cc(O)cc(O)c12` [LUTEOLIN], the CC50 in data set [1] was greater than 50 µM. Besides, the concentration for half-maximal inhibition (IC50) in data set [6] amounted to 1.12 µM. The figures for the concentration for a half-maximal effect (EC50) in data set [4] and in data set [3] were 6.6 µM and 4.7 µM, respectively.
`O=c1c(O)c(-c2ccc(O)cc2O)oc2cc(O)cc(O)c12` [MORIN] returned a CC50 in data set [1] greater than 50 µM. In data set [2], the inhibition at 50 µM worked out at 31.1%.
The compound `O=c1c(O)c(-c2cc(O)c(O)c(O)c2)oc2cc(O)cc(O)c12` [MYRICETIN] came in with a CC50 in data set [1] greater than 50 µM. Besides, the EC50 in data set [3] came out at 46.9 µM.
On to `O=c1c(O)c(-c2ccc(O)c(O)c2)oc2cc(O)cc(O)c12` [QUERCETIN], for which the CC50 in data set [1] is greater than 50 µM. Further, in data set [3], the EC50 came to 19.8 µM.
The matching figures for `COc1cc(-c2oc3cc(O)cc(O)c3c(=O)c2O)cc(OC)c1O` [SYRINGETIN]: greater than 50 µM and 15.5 µM.
The compound `O=c1cc(-c2cc(O)c(O)c(O)c2)oc2cc(O)cc(O)c12` [TRICETIN] displayed a half-maximal cytotoxic concentration (CC50) in data set [1] greater than 50 µM. Further, in data set [3], the EC50 is 32.2 µM.

One may read the CC50 as the concentration giving 50% cytotoxicity. Low values mean greater toxicity to the cells, high ones lower toxicity to the cells. The term inhibition denotes the change of the read-out against control, counted positive when it falls. By EC50 is commonly meant the concentration at which the effect is half-maximal. In general, IC50 refers to the concentration that gives 50% inhibition. The low end stands for greater potency, the high end for weaker potency.
